Marks after values point to notes of the source that are not given here.
What was measured:
Human MSCs = assay: Chondrogenesis induction, Rhodamine B and Nile Red staining; assay type: cell-based
Procedure: Human MSCs were plated in 96-well plates in chondrogenic induction medium (Lonza; DMEM, dexamethasone, ascorbate, insulin-transferrin-selenium [ITS supplement], gentamycin-amphotericin [GA-1000], sodium pyruvate, proline and L-glutamine) and treated with the compound of Formula (I) in DMSO or TGFβ3 (20 μg/mL) as a positive control. Cells were incubated at 37° C., 5% CO2 for either 7 or 21 days, with media changes every 5 days. The cells were fixed using 4% formaldehyde (Electron Microscopy Sciences), and stained with 2 μg/mL Rhodamine B (Sigma-Aldrich) and 20 μM Nile Red (Sigma-Aldrich) (Johnson et al. (2012) Science 336(6082):717-721). The nodules were imaged (25 images per well for 96 well plates at 10× magnification) by excitation at 531 nm and emission at 625 nm and quantified using the Celllnsight CX5 (Thermo Scientific). The number of nodules in each well was normalized to the average of 6 DMSO treated wells on the same plate using Excel (Microsoft Inc.). The normalized averages (fold change over DMSO) of 6 replicate wells for each compound concentration were calculated.

[1] = test system: moderate-to-severe symptomatic knee OA subjects; assay: Phase 1 MRI and radiograph study (bone marrow edema, cartilage thickness, joint space width); assay type: in vivo, human; conditions: for Bone Marrow Edema [N(%)]: Baseline Diffuse, Week 12 Diffuse / Bone Marrow Edema [N(%)]: Baseline Diffuse, Week 12 Focal / Bone Marrow Edema [N(%)]: Baseline Diffuse, Week 12 None / Bone Marrow Edema [N(%)]: Baseline Focal, Week 12 Diffuse / Bone Marrow Edema [N(%)]: Baseline Focal, Week 12 Focal / Bone Marrow Edema [N(%)]: Baseline Focal, Week 12 None / Bone Marrow Edema [N(%)]: Baseline None, Week 12 Diffuse / Bone Marrow Edema [N(%)]: Baseline None, Week 12 Focal / Bone Marrow Edema [N(%)]: Baseline None, Week 12 None: MRI; for change from baseline in joint space width (radiograph): Week 24
Excerpt: To assess the safety and efficacy of the compound of Formula (I) (Form 1), magnetic resonance imaging (MM) was used. Safety evaluations included assessment of bone marrow edema by Mill. MM was used to document changes from baseline in total cartilage volume and thickness in the compartments of the target knee joint. Imaging results (safety and exploratory outcomes) in the Phase 1 study are described above.
Knee MRIs were obtained with a 16 channel knee coil on a 3.0T MRI machine using a standard diagnostic protocol (resolution 0.1-0.4 mm). MM scans were collected at the baseline visit (which could occur ≤28 days prior to study injection) and again at Weeks 12 and 24. The sponsor was unblinded after Week 12 for each cohort; site investigators remained blinded.
An exploratory analysis of change in imaging outcomes was conducted using repeated measures analysis of covariance (ANCOVA) adjusting for baseline in the Intention-to-Treat (ITT) population.
As a safety assessment, MRI scans were used to monitor the presence of focal or diffuse bone marrow edema (BME) in all subjects.
Average cartilage thickness over covered subchondral bone was reported for the following four compartments: medial femoral condyles, lateral femoral condyles, medial tibial plateaus, and lateral tibial plateaus.
FIG. 27 depicts the MRI of a knee joint. To determine average cartilage thickness, the cartilage thickness between the subchondral bone area (400 and 404) and the articular cartilage surface (402 and 406) was measured at numerous (˜400-2000) locations in both directions in the parts covered by cartilage (cAB) and averaged. Measurements were performed in three dimensions. Additionally, the average of the lowest 1% of cartilage thickness was also reported for all 4 compartments. The total for both average thickness and lowest thickness were derived by summing each of the 4 compartments' observations.
Radiographs of the target knee were taken during the screening period and at Week 24 to document change from baseline in joint space width (JSW). Table 52 depicts joint space width as measured by radiography for three dosing cohorts and a placebo group.

secreted GAG = assay: Immunosuppression in chondrocytes: GAG content (DMMB); assay type: cell-based, human; conditions: cells stimulated with TNF-α and oncostatin M or IL-1β; 72 hours; FIG. 20A
Procedure: (§1) Human MSCs were plated in 10 cm dishes in chondrogenic induction medium (Lonza; DMEM, dexamethasone, ascorbate, insulin-transferrin-selenium [ITS supplement], gentamycin-amphotericin [GA-1000], sodium pyruvate, proline and L-glutamine) and treated with TGF-β3 (20 μg/mL) to induce chondrogenic differentiation. Cells from 4 dishes were pooled and re-plated in 24-well plates in Chondrogenic Induction Medium and treated with various concentrations of the compound of Formula (I). 4 hours later, cells were stimulated by adding TNF-α (20 μg/mL)+Oncostatin M ([…]) or IL-1β (10 μg/mL) and incubated at 37° C., 5% CO2 for 72 hours. Chondrocytes were digested with papain (Sigma). GAG content was measured using the dimethylmethylene blue (DMMB) kit (Chondrex). Briefly, the digested chondrocytes were mixed with DMMB in formate buffer and absorbance at 535 nm was measured using Cytation 3 (Biotek). Nitric oxide was measured using Greiss reagent (Promega) according to manufacturer's protocol.

nitric oxide release = assay: Immunosuppression in chondrocytes: nitric oxide (Greiss reagent); assay type: cell-based, human; conditions: cells stimulated with TNF-α and oncostatin M or IL-1β; 72 hours; FIG. 20B
Procedure: as §1

CC(C)CC(=O)Nc1cncc(-c2ccc3[nH]nc(-c4nc5c(-c6cccc(F)c6)cncc5[nH]4)c3c2)c1 [compound of Formula (I)]
chondrocyte colonies/well (Human MSCs; 1.88 nM to 30 nM, FIG. 17): dose-dependent chondrogenesis | chondrogenesis (Nile Red and Rhodamine B staining) (Human MSCs; human MSCs, 7 or 21 days, fold change over DMSO, FIGS. 16A, 16B): dose dependent increase in chondrogenesis | Bone Marrow Edema [N(%)]: Baseline Diffuse, Week 12 Diffuse ([1]; 0.03 mg cohort): 1 (6%) N(%) | Bone Marrow Edema [N(%)]: Baseline Diffuse, Week 12 Focal ([1]; 0.03 mg cohort): 1 (6%) N(%) | Bone Marrow Edema [N(%)]: Baseline Diffuse, Week 12 None ([1]; 0.03 mg cohort): 0 N(%) | Bone Marrow Edema [N(%)]: Baseline Focal, Week 12 Diffuse ([1]; 0.03 mg cohort): 0 N(%) | Bone Marrow Edema [N(%)]: Baseline Focal, Week 12 Focal ([1]; 0.03 mg cohort): 4 (25%) N(%) | Bone Marrow Edema [N(%)]: Baseline Focal, Week 12 None ([1]; 0.03 mg cohort): 0 N(%) | Bone Marrow Edema [N(%)]: Baseline None, Week 12 Diffuse ([1]; 0.03 mg cohort): 0 N(%) | Bone Marrow Edema [N(%)]: Baseline None, Week 12 Focal ([1]; 0.03 mg cohort): 1 (6%) N(%) | Bone Marrow Edema [N(%)]: Baseline None, Week 12 None ([1]; 0.03 mg cohort): 9 (57%) N(%) | Joint space width by radiograph, Week 24 (mm) Actual [Mean (SD)] ([1]; 0.03 mg cohort, N 15): 4.50 (1.72) mm | Joint space width by radiograph, Week 24 (mm) Change from baseline [Mean (SD)] ([1]; 0.03 mg cohort, N 15): 0.00 (0.69) mm | Mean cartilage thickness by MRI, Week 12 (mm) Actual [Mean (SD)] ([1]; 0.03 mg cohort, N 16): 5.38 (1.19) mm | Mean cartilage thickness by MRI, Week 12 (mm) Change from baseline [Mean (SD)] ([1]; 0.03 mg cohort, N 16): −0.06 (0.39) mm | Mean thinnest cartilage by MRI, Week 12 (mm) Actual [Mean (SD)] ([1]; 0.03 mg cohort, N 16): 3.84 (1.57) mm | Mean thinnest cartilage by MRI, Week 12 (mm) Change from baseline [Mean (SD)] ([1]; 0.03 mg cohort, N 16): 0.11 (0.37) mm | area of mean thinnest cartilage by MRI ([1]; 0.03 mg cohort, Week 12): possible trend towards increase | change from baseline in joint space width (radiograph) ([1]; 0.03 mg cohort): no change | Bone Marrow Edema [N(%)]: Baseline Diffuse, Week 12 Diffuse ([1]; 0.07 mg cohort): 0 N(%) | Bone Marrow Edema [N(%)]: Baseline Diffuse, Week 12 Focal ([1]; 0.07 mg cohort): 1 (6%) N(%) | Bone Marrow Edema [N(%)]: Baseline Diffuse, Week 12 None ([1]; 0.07 mg cohort): 0 N(%) | Bone Marrow Edema [N(%)]: Baseline Focal, Week 12 Diffuse ([1]; 0.07 mg cohort): 0 N(%) | Bone Marrow Edema [N(%)]: Baseline Focal, Week 12 Focal ([1]; 0.07 mg cohort): 1 (6%) N(%) | Bone Marrow Edema [N(%)]: Baseline Focal, Week 12 None ([1]; 0.07 mg cohort): 1 (6%) N(%) | Bone Marrow Edema [N(%)]: Baseline None, Week 12 Diffuse ([1]; 0.07 mg cohort): 0 N(%) | Bone Marrow Edema [N(%)]: Baseline None, Week 12 Focal ([1]; 0.07 mg cohort): 2 (13%) N(%) | Bone Marrow Edema [N(%)]: Baseline None, Week 12 None ([1]; 0.07 mg cohort): 11 (69%) N(%) | Joint space width by radiograph, Week 24 (mm) Actual [Mean (SD)] ([1]; 0.07 mg cohort, N 14): 4.16 (1.64) mm | Joint space width by radiograph, Week 24 (mm) Change from baseline [Mean (SD)] ([1]; 0.07 mg cohort, N 14, p = 0.006 versus placebo): 0.59 (0.66)* mm | Mean cartilage thickness by MRI, Week 12 (mm) Actual [Mean (SD)] ([1]; 0.07 mg cohort, N 16): 5.37 (0.71) mm | Mean cartilage thickness by MRI, Week 12 (mm) Change from baseline [Mean (SD)] ([1]; 0.07 mg cohort, N 16): −0.02 (0.25) mm | Mean thinnest cartilage by MRI, Week 12 (mm) Actual [Mean (SD)] ([1]; 0.07 mg cohort, N 16): 3.88 (1.39) mm | Mean thinnest cartilage by MRI, Week 12 (mm) Change from baseline [Mean (SD)] ([1]; 0.07 mg cohort, N 16): 0.10 (0.55) mm | area of mean thinnest cartilage by MRI ([1]; 0.07 mg cohort, Week 12): possible trend towards increase | change from baseline in joint space width (radiograph) ([1]; 0.07 mg cohort): increase | Bone Marrow Edema [N(%)]: Baseline Diffuse, Week 12 Diffuse ([1]; 0.23 mg cohort): 2 (13%) N(%) | Bone Marrow Edema [N(%)]: Baseline Diffuse, Week 12 Focal ([1]; 0.23 mg cohort): 0 N(%) | Bone Marrow Edema [N(%)]: Baseline Diffuse, Week 12 None ([1]; 0.23 mg cohort): 0 N(%) | Bone Marrow Edema [N(%)]: Baseline Focal, Week 12 Diffuse ([1]; 0.23 mg cohort): 0 N(%) | Bone Marrow Edema [N(%)]: Baseline Focal, Week 12 Focal ([1]; 0.23 mg cohort): 8 (50%) N(%) | Bone Marrow Edema [N(%)]: Baseline Focal, Week 12 None ([1]; 0.23 mg cohort): 1 (6%) N(%) | Bone Marrow Edema [N(%)]: Baseline None, Week 12 Diffuse ([1]; 0.23 mg cohort): 0 N(%) | Bone Marrow Edema [N(%)]: Baseline None, Week 12 Focal ([1]; 0.23 mg cohort): 1 (6%) N(%) | Bone Marrow Edema [N(%)]: Baseline None, Week 12 None ([1]; 0.23 mg cohort): 4 (25%) N(%) | Mean cartilage thickness by MRI, Week 12 (mm) Actual [Mean (SD)] ([1]; 0.23 mg cohort, N 15): 5.32 (1.03) mm | Mean cartilage thickness by MRI, Week 12 (mm) Change from baseline [Mean (SD)] ([1]; 0.23 mg cohort, N 15): −0.04 (0.24) mm | Mean thinnest cartilage by MRI, Week 12 (mm) Actual [Mean (SD)] ([1]; 0.23 mg cohort, N 15): 3.01 (1.27) mm | Mean thinnest cartilage by MRI, Week 12 (mm) Change from baseline [Mean (SD)] ([1]; 0.23 mg cohort, N 15): −0.13 (0.30) mm | Joint space width by radiograph, Week 24 (mm) Actual [Mean (SD)] ([1]; 0.23 mg cohort, N 16): 3.47 (1.68) mm | Joint space width by radiograph, Week 24 (mm) Change from baseline [Mean (SD)] ([1]; 0.23 mg cohort, N 16): −0.15 (1.07) mm | change from baseline in joint space width (radiograph) ([1]; 0.23 mg cohort): decrease | exploratory imaging results, dose comparison ([1]; 0.23 mg dose vs 0.03 mg and 0.07 mg doses): less effective | effect on bone marrow edema compared to Placebo ([1]; single IA injection, interim): no appreciable effect | mean cartilage thickness by MRI ([1]; treated subjects, Week 12): no substantial degradation | subjects with improved BME results (focal to none and diffuse to focal) ([1]; treatment groups, baseline to Week 12): 4 | secreted GAG (secreted GAG): reduced | release of nitric oxide (nitric oxide release): reduced
